Measurements as given in patent US8399206B2, “Methods for diagnosis, prognosis and methods of treatment” (Nodality, Inc., priority 2008, dated 2013).

How the values were obtained:
[1] = tested on: AML blasts; experiment: SCNP / phospho-flow modulated signaling assay, AML study No. 1 (PBMC at diagnosis, CR vs NR); format: cell-based, human
Text: The present illustrative example represents how to analyze cells in one embodiment of the present invention. There are several steps in the process, such as the stimulation step, the staining step and the flow cytometry step. The stimulation step of the phospho-flow procedure can start with vials of frozen cells and end with cells fixed and permeabilized in methanol. Then the cells can be stained with an antibody directed to a particular protein of interest and then analyzed using a flow cytometer.
Frozen cells are thawed in a 37° C. water bath and gently resuspended in the vial and transferred to the 15 mL conical tube. The 15 mL tube is centrifuged at 930 RPM (200×g) for 8 minutes at room temperature. The supernatant is aspirated and the pellet is gently resuspended in 1 mL media A. The cell suspension is filtered through a 70 um cell strainer into a new 15 mL tube. The cell strainer is rinsed with 1 mL media A and another 12 ml of media A into the 15 mL tube. The cells are mixed into an even suspension. A 20 μL aliquot is immediately removed into a 96-well plate containing 180 μL PBS+4% FBS+CD45 Alexa 700+PI to determine cell count and viability post spin. After the determination, the 15 mL tubes are centrifuged at 930 RPM (200×g) for 8 minutes at room temperature. The supernatant is aspirated and the cell pellet is gently resuspended in 4 mL PBS+4 μL Amine Aqua and incubated for 15 min in a 37° C. incubator. 10 mL RPMI+1% FBS is added to the cell suspension and the tube is inverted to mix the cells. The 15 mL tubes are centrifuged at 930 RPM (200×g) for 8 minutes at room temperature. The cells are resuspended in Media A at the desired cell concentration (1.25×10^6/mL). For samples with low numbers of cells (<18.5×10^6), the cells are resuspended in up to 15 mL media. For samples with high numbers of cells (>18.5×10^6), the volume is raised to 10 mL with media A and the desired volume is transferred to a new 15 mL tube, and the cell concentration is adjusted to 1.25×10^6 cells/ml. 1.6 mL of the above cell suspension (concentration at 1.25×10^6 cells/ml) is transferred into wells of a multi-well plate. From this plate, 80 ul is dispensed into each well of a subsequent plate. The plates are covered with a lid (Nunc) and placed in a 37° C. incubator for 2 hours to rest.
A concentration for each stimulant that is five folds more (5×) than the final concentration is prepared using Media A as diluent. 5× stimuli are arrayed into wells of a standard 96 well v-bottom plate that correspond to the wells on the plate with cells to be stimulated.
Adding the stimulant: The cell plate(s) are taken out of the incubator and placed in a 37° C. water bath next to the pipette apparatus. The cell plate is taken from the water bath and gently swirled to resuspend any settled cells. With pipettor, the stimulant is dispensed into the cell plate and vortexed at “7” for 5 seconds. The deep well plate is put back into the water bath.
Adding Fixative: 200 μl of the fixative solution (final concentration at 1.6%) is dispensed into wells and then mixed on the titer plate shaker on high for 5 seconds. The plate is covered with foil sealer and incubated in a 37° C. water bath for 10 minutes. The plate is spun for 6 minutes at 2000 rpm at room temperature. The cells are aspirated using a 96 well plate aspirator (VP Scientific). The plate is vortexed to resuspend cell pellets in the residual volume. The pellet is ensured to be dispersed before the Methanol step (see cell permeabilization) or clumping will occur.
Cell Permeabilization: Permeability agent, for example methanol, is added slowly and while the plate is vortexing. To do this, the cell plate is placed on titer plate shaker and made sure it is secure. The plate is set to shake using the highest setting. A pipetter is used to add 0.6 mls of 100% methanol to the plate wells. The plate(s) are put on ice until this step has been completed for all plates.

[2] = tested on: AML BMMC leukemic blasts; experiment: SCNP modulated signaling assay, AML study No. 2 (BMMC, CR vs NR, clinical sub-groups); format: cell-based, human
Description: Two independent sets of cryopreserved samples were analyzed sequentially. The first set consisted of 35 peripheral blood mononuclear cell (PBMC) samples derived from AML patients. The second set consisted of 134 cryopreserved bone marrow mononuclear cell (BMMC) samples derived from AML patients. These samples were the same samples used in the previous examples. Sample inclusion criteria required collection prior to initiation of induction chemotherapy, AML classification by the French-American-British (FAB) criteria as M0 through M7 (excluding M3) and availability of clinical annotations.
In the first study, induction chemotherapy consisted of at least one cycle of standard cytarabine-based induction therapy (i.e. daunorubicin 60 mg/m^2×3 days, cytarabine 100-200 mg/m^2 continuous infusion×7 days); responses were measured after one cycle of induction therapy. In the second study, cytarabine (200 mg/m^2 to 3 g/m^2) was used in combination with an anthracycline (daunorubicin or idarubicin) or an additional anti-metabolite (e.g. fludarabine or troxacitabine), and sometimes, an experimental agent (Table 16). […] Standard clinical and laboratory criteria were used for defining complete response (CR) in both studies. […] Classified as “CRp,” these samples were included in the CR group for all primary analysis. The univariate analyses were also repeated with the CRp patients classified into the NR sample group for sensitivity analysis.
Cyropreserved samples were thawed at […], washed and centrifuged in PBS, 10% FBS and 2 mM EDTA. The cells were re-suspended, filtered to remove debris and washed in RPMI cell culture media, 1% FBS, then stained with Live/Dead Fixable Aqua Viability Dye to distinguish non-viable cells. The cells were then re-suspended in RPMI, 1% FBS, aliquoted to 100,000 cells/condition and rested for 1-2 hours at 37° C. prior to SCNP assays. Each condition included two to five phenotypic markers for cell population gating (eg, CD45, CD33), up to three intracellular stains or up to three additional surface markers or control antibodies for an eight-color flow cytometry assay.
Functional assays were performed as previously described. Cells were incubated with modulators (Table 18), at 37° C. for 3-15 minutes, fixed with 1.6% paraformaldehyde (final concentration) for 10 minutes at 37° C., pelleted and permeabilized with 100% ice-cold methanol and stored at −80° C.
Data was acquired using FACS DIVA software on both LSR II and CANTO II Flow Cytometers (BD). For all analyses, dead cells and debris were excluded by forward scatter (FSC), side scatter (SSC), and Amine Aqua Viability Dye measurement. Leukemic cells were identified as cells that lacked the characteristics of mature lymphocytes (CD45^++, CD33^−) and that fit the CD45 and CD33 versus right-angle light-scatter characteristics consistent with myeloid leukemia cells.
The median fluorescence intensity (MFI) was computed for each node from the fluorescence intensity levels for the cells in the myeloid population. The MFI values were then used to compute a variety of metrics by comparing them to baseline or background values, including the unmodulated condition, cellular autofluorescence and antibody isotype controls. The following metrics were computed: • 1. Basal MFI (“Basal”)=log2(MFIUnmodulated Stained)−log2(MFIGated Unstained (Autofluoresence)), designed to measure the basal levels of a certain protein under unmodulated conditions. • 2.

[3] = Study No. 1 sensitivity analysis, CR samples
[4] = Study No. 1 sensitivity analysis, NR samples incl. CRp

IGF-1
Mean Value of CRs, p-Plcγ2 Total Phospho [1, 3]: 1.82 | Mean Value of CRs, p-CREB Alexa488 Total Phospho ([1]; Study No. 1 sensitivity analysis, CR samples, Alexa488 conjugate): 1.11 | Mean Value of CRs, p-CREB PE Total Phospho ([1]; Study No. 1 sensitivity analysis, CR samples, PE conjugate): 1.42 | Mean Value of NRs, p-Plcγ2 Total Phospho [1, 4]: 2.76 | Mean Value of NRs, p-CREB Alexa488 Total Phospho ([1]; Study No. 1 sensitivity analysis, NR samples incl. CRp, Alexa488 conjugate): 1.62 | Mean Value of NRs, p-CREB PE Total Phospho ([1]; Study No. 1 sensitivity analysis, NR samples incl. CRp, PE conjugate): 2.29

CCCCCCCCCCCCCC(=O)O[C@@H]1[C@@H](C)[C@@]2(O)[C@@H](C=C(CO)C[C@]3(O)C(=O)C(C)=C[C@@H]23)[C@@H]2C(C)(C)[C@]12OC(C)=O [PMA, reference compound]
Mean Value of CRs, p-Erk Fold ([2]; Study No. 2, all patients, CR samples): 2.82 | Mean Value of CRs, p-CREB Total Phospho ([2]; Study No. 2, patients less than 60 years old, CR samples): 3.72 | Mean Value of NRs, p-CREB Total Phospho ([2]; Study No. 2, patients less than 60 years old, NR samples): 5.00

EPO
Mean Value of CRs, p-Stat1 Total Phospho [1, 3]: 0.17 | Mean Value of CRs, p-Stat3 Total Phospho [1, 3]: 0.64 | Mean Value of NRs, p-Stat1 Total Phospho [1, 4]: 0.42 | Mean Value of NRs, p-Stat3 Total Phospho [1, 4]: 1.23

GM-CSF: granulocyte macrophage stimulating factor
increase in p-Akt and p-S6 levels ([1]; Staurosporine Resistant category vs other apoptosis categories): greatest increase in p-Akt and p-S6 levels | Mean Value of CRs, p-Stat3 Total Phospho [1, 3]: 0.83 | Mean Value of NRs, p-Stat3 Total Phospho [1, 4]: 1.23 | Jak/Stat response (G-CSF: p-Stat3, p-Stat5; GM-CSF: p-Stat5) ([1]; all samples of the Staurosporine Resistant apoptosis category): Robust Jak/Stat responses
